In patent US8722663B2, “Di-substituted pyridine derivatives as anticancers” (Otsuka Pharmaceutical Co., Ltd., priority 2010, dated 2014) one finds IC50, response vs control in vivo and melting point data, which are given here for 8 compounds.

As usually defined, the IC50 is the concentration needed to halve the response being measured. The term pIC50 denotes the IC50 on a negative log10 scale, so that one unit is a factor of ten. Low values mean a high IC50, high ones a low IC50. What is called melting point is the temperature of the solid-liquid transition.

Data set [1] concerns human prostate (adenocarcinoma) cell line (VcaP). As to the kind of experiment: Growth inhibition of VcaP cells, WST-8 assay. The format is cell-based. The settings on record: 120 h, 5 days with test compound. Summed up:
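Cells in RPMI 1640 with 10% FBS were preincubated 24 h at 37° C., 5% CO2, then exposed to compound for 5 days. Growth read by WST-8 at 450 nm minus 630 nm, cell-free background subtracted. IC50 derived relative to untreated control.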
On the technique in general: Formazan colour is commonly taken as a measure of viable cells.

Data set [2] deals with bicalutamide resistant human prostate cancer cell line established from LNCaP.FGC (LNCaP-Bic). As to the kind of experiment: Growth inhibition of LNCaP-Bic cells, WST-8 assay. The format is cell-based. Conditions: 120 h, 5 days with test compound. Summed up:
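Cells in RPMI 1640 with 10% FBS preincubated 24 h at 37 °C, 5% CO2, then exposed to compound for 5 days. WST-8 read-out, OD 450 minus 630 nm after cell-free blank subtraction; IC50 (nM) derived against untreated control growth.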

The test system of data set [3] is human prostate (carcinoma) cell line (LNCaP.FGC). The experiment in a line: Growth inhibition of LNCaP.FGC cells, WST-8 assay. In kind it is cell-based. Conditions: 120 h, 5 days with test compound. Summed up: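 Bicalutamide-resistant LNCaP-Bic cells (and parental LNCaP.FGC) in RPMI 1640 + 10% FBS were preincubated 24 h at 37 °C, 5% CO2, then exposed to compound for 5 days. Growth read by WST-8, OD 450 nm minus 630 nm, cell-free blank subtracted; IC50 (nM) taken relative to untreated control.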

A further data set relates to PSA. The experiment in a line: Plasma levels of PSA in LNCaP-Bic tumor bearing nude mice, ELISA. In kind it is in vivo. Conditions: Mus musculus, po, 336 h; 10 mg/kg/day orally, once daily, 14 consecutive days; plasma PSA by ELISA; read-out: T/C(%) (10 mg/kg/day), plasma levels of PSA treated/control. As to the method:
(§1) Human prostate cancer cells (LNCaP-Bic) were transplanted in nude mice (6 males/group) and the inhibitory effect of the invention on their growth was examined. In the study, the tumor cell suspension with matrigel was inoculated at 0.12 mL/body (2.4×10^6 cells/body) into the subcutaneous space of the right axillary region to prepare tumor bearing mice. When the tumor diameter became 5 mm or more, the animals were allocated to groups based on the tumor volume. The test compound was administered orally as a suspension in 5% gum arabic, once daily, for 14 consecutive days. The control group received 5% gum arabic. Tumor volumes were measured on the following day of the last administration. Tumors were removed and the wet weight of the tumor was measured using an electronic balance. The ratio of the tumor weight in the treated group to that in the control group (T/C %) was calculated as the index for the effect. T/C %=(Mean tumor weight in the treatment group/Mean tumor weight in the control group)×100.
The heparinized blood was collected from the postcava under diethylether anesthesia. The plasma levels of PSA were measured using ELISA. The ratio of the plasma levels of PSA in the treated group to that in the control group (T/C %) was calculated as the index for the effect. T/C %=(Mean plasma levels of PSA in the treatment group/Mean plasma levels of PSA in the control group)×100.

Data set [4] has as its system human prostate (carcinoma) cell line (DU 145). As to the kind of experiment: Growth inhibition of DU 145 cells, WST-8 assay. The settings on record: 120 h, 5 days with test compound. In kind it is cell-based. Summed up: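 DU 145 cells in RPMI 1640 with 10% FBS were pre-incubated 24 h at 37° C, 5% CO2, then exposed to compound for 5 days. Growth was read by WST-8 reduction (OD 450 minus 630 nm, cell-free blank subtracted). IC50 was taken relative to untreated control.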

Data set [5] deals with Human prostate cancer cells (LNCaP-Bic). As to the kind of experiment: Antitumor effect on LNCaP-Bic tumors transplanted in nude mice, tumor weight. The format is in vivo. The settings on record: Mus musculus, po, 336 h, 10 mg/kg/day orally, once daily, 14 consecutive days, read-out: T/C(%) (10 mg/kg/day), tumor weight treated/control. As to the method:
as §1

For data set [6], the system named is human hepatic cancer cell line (HuH-7). As to the kind of experiment: Growth inhibition of HuH-7 cells, sulforhodamine B method. In kind it is cell-based. Conditions: Homo sapiens, 120 h, 5 days with test compound.
The subject of data set [7] is human breast cancer cell line (MDA-MB-468). The experiment in a line: Growth inhibition of MDA-MB-468 cells, sulforhodamine B method. In kind it is cell-based. Conditions: 120 h, 5 days with test compound. Put shortly: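 MDA-MB-468 cells in DMEM/10% FBS were incubated 24 h at 37° C., then exposed to compound for 5 days. After TCA fixation and sulforhodamine B staining, OD 492 nm minus 690 nm was read with cell-free background subtracted. IC50 was set against untreated control.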
A general note: The SRB assay estimates cell density from bound dye.

The subject of data set [8] is human prostate (adenocarcinoma) cell line (PC-3). The experiment in a line: Growth inhibition of PC-3 cells, WST-8 assay. In kind it is cell-based. Conditions: 120 h, 5 days with test compound. Summed up:
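Cells seeded in RPMI 1640 with 10% FBS, grown 24 h at 37 °C, 5% CO2, then exposed to compound for 5 days. WST-8 read-out, OD 450 nm minus 630 nm reference, cell-free blank subtracted. IC50 (nM) from growth relative to compound-free control.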

Structures are written as SMILES. pIC50: −log10 of the molar value. Where a name gives a salt, the structure may show the parent alone.

Consider `Cc1cc(/C=C/C(=O)N2CCN(Cc3ccc(CCOc4ccc(C(C)C)cc4)cc3)CC2)cc(Cl)c1Oc1ccc(OCc2ccc(F)cc2)cn1` [Example 438, (E)-3-[3-Chloro-4-({5-[(4-fluorobenzyl)oxy]pyridin-2-yl}oxy)-5-methylphenyl]-1-[4-(4-{2-[4-(propan-2-yl)phenoxy]ethyl}benzyl)piperazin-1-yl]prop-2-en-1-one hydrochloride], for which the IC50 in data set [1], in [2], in data set [3], in data set [4] and in [8] was less than 10 nM in each case. The response vs control in vivo at 10 mg/kg (in the data set on PSA; in [5]) was less than 50% in each case. Also, the pIC50 in data set [6] and in data set [7] was more than 8.00 throughout.
In turn, `Cc1cc(/C=C/C(=O)N2CCN(Cc3ccc(CCOc4ccc(F)cc4)cc3)CC2)cc(Cl)c1Oc1ccc(OCc2ccc(Cl)cc2)cn1.Cl` [Example 429, (E)-3-[3-Chloro-4-({5-[(4-chlorobenzyl)oxy]pyridin-2-yl}oxy)-5-methylphenyl]-1-(4-{4-[2-(4-fluorophenoxy)ethyl]benzyl}piperazin-1-yl)prop-2-en-1-one hydrochloride] came in with a melting point of 224.4 to 228.8 °C. In [1], this compound came in with an IC50 of less than 10 nM. In data set [2], this compound yielded an IC50 of less than 10 nM. This compound also came in with an IC50 in [3] of less than 10 nM. Moreover, in the data set on PSA, the response vs control in vivo at 10 mg/kg was less than 50%. Also, in [4], the IC50 is less than 10 nM. In [5], the response vs control in vivo at 10 mg/kg is less than 50%. This compound also came in with an IC50 in data set [8] of less than 10 nM.
Compound `Cc1ccc(OCCc2ccc(CN3CCN(C(=O)/C=C/c4cc(C)c(Oc5ccc(OCc6ccc(Cl)cc6)cn5)c(Cl)c4)CC3)cc2)cc1.Cl` [Example 777, (E)-3-[3-chloro-4-({5-[(4-chlorobenzyl)oxy]pyridin-2-yl}oxy)-5-methylphenyl]-1-(4-{4-[2-(4-methylphenoxy)ethyl]benzyl}piperazin-1-yl)prop-2-en-1-one hydrochloride] showed a melting point of 220.1 to 220.3 °C. The same compound registered an IC50 in data set [1] of less than 10 nM. For the same compound, in [2], the IC50 was less than 10 nM. The compound also displayed an IC50 in data set [3] of less than 10 nM. The response vs control in vivo at 10 mg/kg with PSA is less than 50%. In addition, in data set [4], the IC50 was less than 10 nM. The response vs control in vivo at 10 mg/kg in data set [5] is less than 50%. This compound gave a pIC50 in [6] of more than 8.00. In [7], this compound had a pIC50 of more than 8.00. For the same compound, in data set [8], the IC50 is less than 10 nM.
The compound `Cc1cc(/C=C/C(=O)N2CCN(Cc3ccc(CCOc4ccc(F)cc4)cc3)CC2)cc(Cl)c1Oc1ccc(OCc2ccc(F)cc2)cn1.Cl` [Example 435, (E)-3-[3-Chloro-4-({5-[(4-fluorobenzyl)oxy]pyridin-2-yl}oxy)-5-methylphenyl]-1-(4-{4-[2-(4-fluorophenoxy)ethyl]benzyl}piperazin-1-yl)prop-2-en-1-one hydrochloride] showed a melting point of 214.3 to 216.2 °C. Further, the IC50 in [1] is less than 10 nM. In data set [2], this compound came in with an IC50 of less than 10 nM. Moreover, the IC50 in data set [3] was less than 10 nM. The response vs control in vivo at 10 mg/kg in the data set on PSA was less than 50%. In [4], this compound showed an IC50 of less than 10 nM. Further, in [5], the response vs control in vivo at 10 mg/kg was less than 50%. The compound further had a pIC50 in data set [6] of more than 8.00. Also, the pIC50 in data set [7] is more than 8.00. Further, the IC50 in data set [8] was less than 10 nM.
Take `Cc1ccc(COc2ccc(Oc3c(C)cc(/C=C/C(=O)N4CCN(Cc5ccc(CCOc6ccc(F)cc6)cc5)CC4)cc3Cl)nc2)cc1.Cl` [Example 430, (E)-3-[3-Chloro-5-methyl-4-({5-[(4-methylbenzyl)oxy]pyridin-2-yl}oxy)phenyl]-1-(4-{4-[2-(4-fluorophenoxy)ethyl]benzyl}piperazin-1-yl)prop-2-en-1-one hydrochloride]: the melting point was in the range of 227.1 to 227.2 °C. In [1], this compound returned an IC50 of less than 10 nM. The IC50 in data set [2] was less than 10 nM. In addition, the IC50 in data set [3] is less than 10 nM. Besides, the response vs control in vivo at 10 mg/kg in the data set on PSA is less than 50%. In addition, the IC50 in data set [4] was less than 10 nM. In addition, the response vs control in vivo at 10 mg/kg in data set [5] is less than 50%. Besides, the pIC50 in [6] was more than 8.00. The compound further showed a pIC50 in data set [7] of more than 8.00. The IC50 in [8] was less than 10 nM.
Turning to `Cc1ccc(COc2ccc(Oc3c(C)cc(/C=C/C(=O)N4CCN(Cc5ccc(CCOc6ccc(C)cc6)cc5)CC4)cc3Cl)nc2)cc1.Cl` [Example 432, (E)-3-[3-Chloro-5-methyl-4-({5-[(4-methylbenzyl)oxy]pyridin-2-yl}oxy)phenyl]-1-(4-{4-[2-(4-methylphenoxy)ethyl]benzyl}piperazin-1-yl)prop-2-en-1-one hydrochloride], the melting point lay within 232.1 to 232.7 °C. This compound yielded an IC50 in data set [1] of less than 10 nM. This compound also had an IC50 in data set [2] of less than 10 nM. The IC50 in data set [3] was less than 10 nM. Further, in the data set with PSA, the response vs control in vivo at 10 mg/kg was less than 50%. The same compound had an IC50 in [4] of less than 10 nM. For the same compound, in data set [5], the response vs control in vivo at 10 mg/kg is less than 50%. The pIC50 in [6] was more than 8.00. Also, the pIC50 in data set [7] was more than 8.00. The IC50 in data set [8] is less than 10 nM.
Compound `COc1ccc(OCCc2ccc(CN3CCN(C(=O)/C=C/c4cc(C)c(Oc5ccc(OCc6ccc(C)cc6)cn5)c(Cl)c4)CC3)cc2)cc1.Cl` [Example 440, (E)-3-[3-Chloro-5-methyl-4-({5-[(4-methylbenzyl)oxy]pyridin-2-yl}oxy)phenyl]-1-(4-{4-[2-(4-methoxyphenoxy)ethyl]benzyl}piperazin-1-yl)prop-2-en-1-one hydrochloride] came in with a melting point of 225.1 to 226.6 °C. The compound further had an IC50 in data set [1] of less than 10 nM. The compound also came in with an IC50 in [2] of less than 10 nM. In [3], this compound showed an IC50 of less than 10 nM. For the same compound, the response vs control in vivo at 10 mg/kg in the data set with PSA is less than 50%. For the same compound, the IC50 in data set [4] was less than 10 nM. Besides, the response vs control in vivo at 10 mg/kg in [5] is less than 50%. The IC50 in data set [8] was less than 10 nM.
As to `Cc1ccc(COc2ccc(Oc3c(C)cc(/C=C/C(=O)N4CCN(Cc5ccc(CCOc6ccc(Cl)cc6)cc5)CC4)cc3Cl)nc2)cc1` [Example 408, (E)-3-[3-chloro-5-methyl-4-({5-[(4-methylbenzyl)oxy]pyridin-2-yl}oxy)phenyl]-1-(4-{4-[2-(4-chlorophenoxy)ethyl]benzyl}piperazin-1-yl)prop-2-en-1-one hydrochloride], the IC50 in data set [1], in data set [2], in [3], in data set [4] and in data set [8] was less than 10 nM throughout. Moreover, the response vs control in vivo at 10 mg/kg (in the data set with PSA; in [5]) was less than 50% throughout. Also, the pIC50 in [6] and in data set [7] was more than 8.00 throughout.
